Literature values in PubChem BioAssay AID1259410 (Chemical Carcinogenesis Research Information System (CCRIS), 2018).

System: rodent tumor promotion studies, tumor incidence
Experiment: CCRIS tumor promotion studies

CCO
outcome (Carcinogen: 1,2-DIMETHYLHYDRAZINE [540-73-8], Doses [Carcinogen]: 21 MG/KG WEEKLY FOR 18 WKS, Doses [Promoter]: 1.23 G/KG ADDED TO DRINKING WATER DAILY FOR 25-27 WKS, Route [Carcinogen]: SUBCUTANEOUS, Route [Promoter]: ORAL (DRINKING WATER), Species: RAT, Strain/Sex: SPRAGUE-DAWLEY/MALE, FEMALE): negative
outcome (Carcinogen: 1,2-DIMETHYLHYDRAZINE, 540-73-8, Doses [Carcinogen]: 30 MG/KG BW 1/WK FOR 4 WK, Doses [Promoter]: 0, 6.6% OF LIQUID DIET BEGINNING 4 WK PRIOR TO CARCINOGEN TREATMENT LIQUID DIETS SUSPENDED FOR 3 WK DURING CARCINOGEN TR, Route [Carcinogen]: SUBCUTANEOUS, Route [Promoter]: ORAL, Species: RAT, Strain/Sex: SPRAGUE-DAWLEY/MALE): rectum: tumors
outcome (Carcinogen: 4-(METHYLNITROSAMINO)-1-(3-PYRIDYL)-1-BUTANONE, 64091-91-4, Doses [Carcinogen]: 0, 50 MG/KG IN DISTILLED WATER ADMINISTERED INTRATRACHEALLY TO MOTHERS ON DAY 15 OF GESTATION, Doses [Promoter]: 10% IN DRINKING WATER ADMINISTERED IN DRINKING WATER TO MOTHERS ON DAYS 5 THROUGH 16 OF PREGNANCY (STUDY DURATION: 48 WK, Route [Carcinogen]: TRANSPLACENTAL, Route [Promoter]: TRANSPLACENTAL, Species: HAMSTER, Strain/Sex: SYRIAN/FEMALE): nasal cavity: tumor; pancreas: tumor; adrenal gland: tumor
outcome (Carcinogen: 4-(METHYLNITROSAMINO)-1-(3-PYRIDYL)-1-BUTANONE, 64091-91-4, Doses [Carcinogen]: 0, 50 MG/KG IN DISTILLED WATER ADMINISTERED INTRATRACHEALLY TO MOTHERS ON DAY 15 OF GESTATION, Doses [Promoter]: 10% IN DRINKING WATER ADMINISTERED IN DRINKING WATER TO MOTHERS ON DAYS 5 THROUGH 16 OF PREGNANCY (STUDY DURATION: 48 WK, Route [Carcinogen]: TRANSPLACENTAL, Route [Promoter]: TRANSPLACENTAL, Species: HAMSTER, Strain/Sex: SYRIAN/MALE): pancreas: tumor; adrenal gland: tumor
outcome (Carcinogen: 4-(METHYLNITROSAMINO)-1-(3-PYRIDYL)-1-BUTANONE, 64091-91-4, Doses [Carcinogen]: 20 MMOL/KG (TOTAL DOSE) 3/WK FOR 4 WK, Doses [Promoter]: 0, 7% (V/V) IN LIQUID DIET FOR 50 WK BEGINNING 1 WK POST CARCINOGEN TREATMENT (STUDY DURATION: 55 WK), Route [Carcinogen]: GAVAGE, Route [Promoter]: ORAL, Species: RAT, Strain/Sex: F344/MALE): esophagus: tumor; oral cavity: tumor; lung: tumor
outcome (Carcinogen: 7,12-DIMETHYLBENZ[A]ANTHRACENE, 57-97-6, Doses [Carcinogen]: 1% PAINTED ON RIGHT BUCCAL POUCH 1/2 D FOR 1 WK, Doses [Promoter]: 0, 5% IN LIQUID DIET BEGINNING 1 WK POST CARCINOGEN TREATMENT AND CONTINUING FOR 35 WK (STUDY DURATION: 35 WK), Route [Carcinogen]: MUCOUS MEMBRANE, Route [Promoter]: ORAL, Species: HAMSTER, Strain/Sex: SYRIAN/MALE): buccal pouch: epidermoid carcinoma
outcome (Carcinogen: 17ALPHA-ETHYNYLESTRADIOL, 57-63-6, NORETHINDRONE ACETATE, 51-98-9, Carcinogen: 17ALPHA-ETHYNYLESTRADIOL, 57-63-6, NORETHINDRONE ACETATE, 51-98-9, Doses [Carcinogen]: 0.075 MG EE AND 6 MG NA IN 0.5 ML OLIVE OIL 1/D FOR 12 MO, Doses [Promoter]: 0, 10% IN DRINKING WATER 5 D/WK FOR 12 MO (STUDY DURATION: 12 MO), Route [Carcinogen]: GAVAGE, GAVAGE, Route [Promoter]: ORAL, Species: RAT, Strain/Sex: WISTAR/FEMALE): liver: hepatocellular carcinoma
outcome (Carcinogen: DIETHYLNITROSAMINE, 55-18-5, Doses [Carcinogen]: 33, 50 PPM IN DRINKING WATER FOR 8 WK, Doses [Promoter]: 10% IN DRINKING WATER FOR 8 WK ADMINISTERED WITH CARCINOGEN (STUDY DURATION: 104 WK), Route [Carcinogen]: ORAL, Route [Promoter]: ORAL, Species: RAT, Strain/Sex: F344/MALE): esophagus: papilloma or carcinoma
outcome (Carcinogen: Diethylnitrosamine, 55-18-5, Doses [Carcinogen]: 40 mg/l for 4 consecutive d/wk for 180 days, study duration 180 d, Doses [Promoter]: 6%, 3 d /wk for 180 d, study duration 180 d, Route [Carcinogen]: Oral (drinking water), Route [Promoter]: Oral (drinking water), Species: Mouse, Strain/Sex: CF1/Female (16, 47/Group)): stomach: squamous cell carcinoma (33% vs 30%); adenocarcinoma (17% vs 15%); both
outcome (Carcinogen: METHYLAZOXYMETHANOL ACETATE, 592-62-1, Doses [Carcinogen]: 25 MG/KG IN SALINE 1/WK FOR 2 WK, Doses [Promoter]: 0.10% IN DRINKING WATER FOR 393 D BEGINNING 1 WK POST CARCINOGEN DOSE (STUDY DURATION: 414 D), Route [Carcinogen]: INTRAPERITONEAL, Route [Promoter]: ORAL, Species: RAT, Strain/Sex: ACI/MALE): large intestine: adenoma, adenocarcinoma
outcome (Carcinogen: N6-(METHYLNITROSO)ADENOSINE, 21928-82-5, Doses [Carcinogen]: 180 MG/KG 3/WK FOR 12 WK, Doses [Promoter]: 0, 15% 3/WK FOR 12 WK ADMINISTERED WITH CARCINOGEN (STUDY DURATION: 18 MO), Route [Carcinogen]: GAVAGE, Route [Promoter]: GAVAGE, Species: MOUSE, Strain/Sex: SWISS/FEMALE): thymus: lymphoma
outcome (Carcinogen: N'-NITROSONORNICOTINE, 16543-55-8, Doses [Carcinogen]: 40 MMOL/KG (TOTAL DOSE) 3/WK FOR 4 WK, Doses [Promoter]: 0, 7% (V/V) IN LIQUID DIET FOR 50 WK BEGINNING 1 WK POST CARCINOGEN TREATMENT (STUDY DURATION: 55 WK), Route [Carcinogen]: GAVAGE, Route [Promoter]: ORAL, Species: RAT, Strain/Sex: F344/MALE): esophagus: tumor; oral cavity: tumor; lung: tumor
outcome (Carcinogen: N-METHYL-N'-NITRO-N-NITROSOGUANIDINE, 70-25-7, Doses [Carcinogen]: 50 UG/ML IN DRINKING WATER FOR 20 WK, Doses [Promoter]: 0, 2.5 ML/KG BW OF 20% AGENT IN 0.9% SALINE SOLUTION 1/2D BEGINNING 1 WK POST LAST CARCINOGEN DOSE AND CONTINUING FOR DU, Route [Carcinogen]: ORAL, Route [Promoter]: INTRAPERITONEAL, Species: RAT, Strain/Sex: WISTAR/MALE): stomach: adenocarcinoma
outcome (Carcinogen: N-METHYL-N-NITROSOUREA, 684-93-5, Doses [Carcinogen]: 30 MG/KG BW ONCE AT 50 D OF AGE, Doses [Promoter]: 0, 15% OF CALORIES IN DIET FOR 4 WK BEGINNING 3 WK PRIOR TO CARCINOGEN DOSE (STUDY DURATION: 25 WK), Route [Carcinogen]: INTRAPERITONEAL, Route [Promoter]: ORAL, Species: RAT, Strain/Sex: SPRAGUE-DAWLEY/FEMALE): mammary gland: adenocarcinoma
outcome (Carcinogen: N-METHYL-N-NITROSOUREA, 684-93-5, Doses [Carcinogen]: 30 MG/KG BW ONCE AT 51 D OF AGE, Doses [Promoter]: 0, 15%, 20% OF CALORIES IN DIET BEGINNING 1 WK POST CARCINOGEN DOSE AND CONTINUING FOR DURATION OF STUDY (STUDY DURATION, Doses [Promoter]: 0, 15%, 20% OF CALORIES IN DIET BEGINNING 1 WK POST CARCINOGEN DOSE AND CONTINUING FOR DURATION OF STUDY (STUDY DURATION, Route [Carcinogen]: INTRAPERITONEAL, Route [Promoter]: ORAL, Species: RAT, Strain/Sex: SPRAGUE-DAWLEY/FEMALE): mammary gland: adenocarcinoma
outcome (Carcinogen: N-NITROSODIMETHYLAMINE, 62-75-9, Doses [Carcinogen]: 1 PPM IN DRINKING WATER FOR 48 OR 72 WK, Doses [Promoter]: 0, 10% IN DRINKING WATER FOR 48 OR 72 WK (STUDY DURATION: 72 WK), Route [Carcinogen]: ORAL, Route [Promoter]: ORAL, Species: MOUSE, Strain/Sex: STRAIN-A/MALE): lung: tumor
outcome (Carcinogen: N-NITROSODIMETHYLAMINE, 62-75-9, Doses [Carcinogen]: 5 MG/KG ONCE, Doses [Promoter]: 0, 5, 10, 20% SOLUTION ADMINISTERED WITH CARCINOGEN DOSE (STUDY DURATION: 16 WK), Doses [Promoter]: 0, 5, 10, 20% SOLUTION ADMINISTERED WITH CARCINOGEN DOSE (STUDY DURATION: 16 WK), Route [Carcinogen]: GAVAGE, Route [Promoter]: GAVAGE, Species: MOUSE, Strain/Sex: STRAIN-A/MALE): lung: tumor
outcome (Carcinogen: N-NITROSODIMETHYLAMINE, 62-75-9, Doses [Carcinogen]: 5 PPM IN DRINKING WATER FOR 4 WK, Doses [Promoter]: 0, 1, 5, 10% IN DRINKING WATER FOR 4 WK (STUDY DURATION: 16 WK), Doses [Promoter]: 0, 1, 5, 10% IN DRINKING WATER FOR 4 WK (STUDY DURATION: 16 WK), Route [Carcinogen]: ORAL, Route [Promoter]: ORAL, Species: MOUSE, Strain/Sex: STRAIN-A/MALE): lung: tumor
outcome (Carcinogen: N-NITROSOMETHYLBENZYLAMINE, 937-40-6, Doses [Carcinogen]: 0.2 MG/KG BW IN CORN OIL 3/WK FOR 3 WK, Doses [Promoter]: 0, 30% OF TOTAL CALORIES BEGINNING POST CARCINOGEN TREATMENT AND CONTINUING FOR DURATION OF STUDY (STUDY DURATION: 23 WK, Route [Carcinogen]: GAVAGE, Route [Promoter]: ORAL, Species: MOUSE, Strain/Sex: C57BL/FEMALE): esophagus: tumor
outcome (Carcinogen: N-NITROSOMETHYLBENZYLAMINE, 937-40-6, Doses [Carcinogen]: 0.2 MG/KG IN CORN OIL 3/WK FOR 3 WK, Doses [Promoter]: SUBSTITUTED FOR MALTOSE DEXTRIN IN DIET TO PROVIDE 30% OF TOTAL DIETARY CALORIES BEGINNING POST CARCINOGEN TREATMENT AND, Route [Carcinogen]: GAVAGE, Route [Promoter]: ORAL, Species: MOUSE, Strain/Sex: C57BL/FEMALE): esophagus: tumor
outcome (Carcinogen: N-NITROSOMETHYLBENZYLAMINE, 937-40-6, Doses [Carcinogen]: 2.5 MG/KG 3/WK FOR 3 WK, Doses [Promoter]: 1-2% IN LIQUID DIET ON DAY 1 AND INCREASING TO 7% BY DAY 8 OF AGENT TREATMENT BEGINNING 1 WK POST LAST CARCINOGEN DOSE F, Route [Carcinogen]: INTRAPERITONEAL, Route [Promoter]: ORAL, Species: RAT, Strain/Sex: SPRAGUE-DAWLEY/MALE): esophagus: papilloma
outcome (Carcinogen: N-NITROSOPYRROLIDINE, 930-55-2, Doses [Carcinogen]: 6.8 PPM IN DRINKING WATER FOR 4 WK, Doses [Promoter]: 0, 10% IN STERILIZED DISTILLED DRINKING WATER ADMINISTERED WITH CARCINOGEN FOR 4 WK (STUDY DURATION: 36 WK), Route [Carcinogen]: ORAL, Route [Promoter]: ORAL, Species: MOUSE, Strain/Sex: STRAIN-A/MALE): lung: tumor
outcome (Carcinogen: N-NITROSOPYRROLIDINE, 930-55-2, Doses [Carcinogen]: 40 PPM IN DRINKING WATER FOR 4 WK, Doses [Promoter]: 0, 10% IN STERILIZED DISTILLED DRINKING WATER ADMINISTERED WITH CARCINOGEN FOR 4 WK (STUDY DURATION: 36 WK), Route [Carcinogen]: ORAL, Route [Promoter]: ORAL, Species: MOUSE, Strain/Sex: STRAIN-A/MALE): lung: tumor
outcome (Carcinogen: NITROSODIETHYLAMINE, 55-18-5, Doses [Carcinogen]: 6.8 PPM IN DRINKING WATER FOR 4 WK, Doses [Promoter]: 0, 10% IN STERILIZED DISTILLED DRINKING WATER ADMINISTERED WITH CARCINOGEN FOR 4 WK (STUDY DURATION: 36 WK), Route [Carcinogen]: ORAL, Route [Promoter]: ORAL, Species: MOUSE, Strain/Sex: STRAIN-A/MALE): lung: tumor; forestomach: carcinoma
outcome (Doses [Carcinogen]: 1.5 MG/KG IN DMSO 2/WK FOR 10 WK (TOTAL DOSE: 30 MG/KG), Doses [Promoter]: 10% IN DRINKING WATER FOR 56 WK ADMINISTERED 1 WK POST CARCINOGEN DOSES (STUDY DURATION: 57 WK), Route [Carcinogen]: INTRAPERITONEAL, Route [Promoter]: ORAL, Species: RAT, Strain/Sex: ACI/N/MALE): liver: hepatocellular carcinoma, neoplastic nodule
